The target of one experiment is T1, Adenosine receptor A1 (Homo sapiens, UniProt P30542).
T1 sequence (P30542 whole entry): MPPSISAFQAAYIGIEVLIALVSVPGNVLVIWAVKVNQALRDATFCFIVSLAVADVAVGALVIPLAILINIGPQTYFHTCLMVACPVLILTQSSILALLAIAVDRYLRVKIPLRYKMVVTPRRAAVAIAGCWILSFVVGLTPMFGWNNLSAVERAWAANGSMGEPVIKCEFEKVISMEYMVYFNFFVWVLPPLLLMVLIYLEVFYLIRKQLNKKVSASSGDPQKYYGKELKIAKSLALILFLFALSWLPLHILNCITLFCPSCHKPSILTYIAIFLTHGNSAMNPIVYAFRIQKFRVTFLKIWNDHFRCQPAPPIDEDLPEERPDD

Another experiment concerns the target T2, B1 bradykinin receptor (Homo sapiens, UniProt P46663).
T2 sequence (P46663 whole entry): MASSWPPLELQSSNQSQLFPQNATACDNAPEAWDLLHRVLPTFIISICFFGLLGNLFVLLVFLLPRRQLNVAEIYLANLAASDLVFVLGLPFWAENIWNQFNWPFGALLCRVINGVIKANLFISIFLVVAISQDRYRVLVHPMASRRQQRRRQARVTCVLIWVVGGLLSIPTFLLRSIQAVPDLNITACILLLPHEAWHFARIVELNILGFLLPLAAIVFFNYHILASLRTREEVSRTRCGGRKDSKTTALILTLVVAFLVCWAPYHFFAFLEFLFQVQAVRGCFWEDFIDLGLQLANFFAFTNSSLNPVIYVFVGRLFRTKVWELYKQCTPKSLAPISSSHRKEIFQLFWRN

Another experiment has as its target T3, Endothelin-1 receptor (Homo sapiens, UniProt P25101).
T3 sequence (P25101 whole entry): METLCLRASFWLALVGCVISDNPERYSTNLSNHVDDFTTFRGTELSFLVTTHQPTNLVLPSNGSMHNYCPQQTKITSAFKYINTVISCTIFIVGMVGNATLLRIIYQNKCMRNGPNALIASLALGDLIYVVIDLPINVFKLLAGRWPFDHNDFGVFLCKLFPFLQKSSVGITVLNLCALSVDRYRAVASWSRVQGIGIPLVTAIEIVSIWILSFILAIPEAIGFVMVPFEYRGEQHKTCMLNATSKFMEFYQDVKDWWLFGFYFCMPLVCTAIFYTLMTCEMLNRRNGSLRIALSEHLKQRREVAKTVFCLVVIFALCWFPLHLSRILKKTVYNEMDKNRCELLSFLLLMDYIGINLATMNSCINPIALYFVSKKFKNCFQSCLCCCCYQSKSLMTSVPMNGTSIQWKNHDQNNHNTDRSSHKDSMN

Experiment [1] has as its target Muscarinic acetylcholine receptor M3 (Homo sapiens, UniProt P20309).
In experiment [2] the target is T4, Muscarinic acetylcholine receptor M1 (Homo sapiens, UniProt P11229).
T4 sequence (P11229 whole entry): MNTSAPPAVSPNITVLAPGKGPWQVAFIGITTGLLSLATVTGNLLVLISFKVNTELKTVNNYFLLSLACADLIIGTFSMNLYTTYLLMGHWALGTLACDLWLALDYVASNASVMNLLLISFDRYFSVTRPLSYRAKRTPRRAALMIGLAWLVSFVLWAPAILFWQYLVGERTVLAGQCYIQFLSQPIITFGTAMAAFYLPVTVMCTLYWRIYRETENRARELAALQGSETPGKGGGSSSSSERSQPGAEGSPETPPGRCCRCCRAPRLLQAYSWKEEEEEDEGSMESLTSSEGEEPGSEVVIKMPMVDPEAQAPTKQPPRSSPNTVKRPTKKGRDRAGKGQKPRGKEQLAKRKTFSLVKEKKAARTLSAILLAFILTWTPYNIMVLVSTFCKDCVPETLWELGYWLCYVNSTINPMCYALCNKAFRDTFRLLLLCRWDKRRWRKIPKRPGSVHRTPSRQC
The experiment is classed as functional.

A further experiment deals with Histamine H1 receptor (Homo sapiens, UniProt P35367).
Experiment [3] deals with Beta-2 adrenergic receptor (Homo sapiens, UniProt P07550). In kind it is functional, cell-based.
Experiment [4] has as its target T5, Alpha-1A adrenergic receptor (Homo sapiens, UniProt P35348).
T5 sequence (P35348 whole entry): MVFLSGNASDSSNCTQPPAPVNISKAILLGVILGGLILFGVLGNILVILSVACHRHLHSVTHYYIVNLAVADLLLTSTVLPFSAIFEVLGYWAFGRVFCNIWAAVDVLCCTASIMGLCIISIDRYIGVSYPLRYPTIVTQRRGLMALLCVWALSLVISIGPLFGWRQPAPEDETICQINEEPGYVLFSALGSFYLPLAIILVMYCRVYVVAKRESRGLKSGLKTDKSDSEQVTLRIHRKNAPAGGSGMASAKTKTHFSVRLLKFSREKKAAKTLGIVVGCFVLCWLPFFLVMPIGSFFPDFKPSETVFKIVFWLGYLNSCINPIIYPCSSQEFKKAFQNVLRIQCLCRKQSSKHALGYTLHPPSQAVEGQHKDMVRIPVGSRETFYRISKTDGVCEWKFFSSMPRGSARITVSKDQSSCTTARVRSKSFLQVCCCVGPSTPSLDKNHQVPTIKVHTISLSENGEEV
The experiment is classed as functional, cell-based.

Experiment [5] deals with Gamma-aminobutyric acid receptor subunit alpha-1/alpha-2/beta-2/gamma-2 (Homo sapiens, UniProt P14867+P18507+P47869+P47870). In kind it is protein-complex assay.
In experiment [6] the target is T6, 5-hydroxytryptamine receptor 2A (Homo sapiens, UniProt P28223). In kind it is functional, cell-based.
The target in experiment [7] is T6, 5-hydroxytryptamine receptor 2A. The experiment is classed as functional, cell-based. The source holds these as a separate data set.
Also: assay procedure not described here.

Muscarinic acetylcholine receptor M3, sequence (P20309 whole entry): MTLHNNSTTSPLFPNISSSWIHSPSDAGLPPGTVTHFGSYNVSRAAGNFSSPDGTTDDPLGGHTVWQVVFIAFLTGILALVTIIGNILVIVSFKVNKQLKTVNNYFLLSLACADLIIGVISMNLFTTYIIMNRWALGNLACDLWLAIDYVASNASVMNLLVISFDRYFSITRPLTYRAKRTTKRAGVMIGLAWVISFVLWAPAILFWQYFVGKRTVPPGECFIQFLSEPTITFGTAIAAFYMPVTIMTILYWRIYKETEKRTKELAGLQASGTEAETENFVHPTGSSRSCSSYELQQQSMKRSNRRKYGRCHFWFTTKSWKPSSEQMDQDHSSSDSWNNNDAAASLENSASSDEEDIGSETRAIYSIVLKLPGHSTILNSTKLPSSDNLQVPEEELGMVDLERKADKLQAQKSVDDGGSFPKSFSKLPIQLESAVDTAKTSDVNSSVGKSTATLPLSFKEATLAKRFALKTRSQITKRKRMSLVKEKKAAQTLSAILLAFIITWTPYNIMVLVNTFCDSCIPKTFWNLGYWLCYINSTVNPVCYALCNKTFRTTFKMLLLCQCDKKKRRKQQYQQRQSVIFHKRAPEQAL
Beta-2 adrenergic receptor, sequence (P07550 whole entry): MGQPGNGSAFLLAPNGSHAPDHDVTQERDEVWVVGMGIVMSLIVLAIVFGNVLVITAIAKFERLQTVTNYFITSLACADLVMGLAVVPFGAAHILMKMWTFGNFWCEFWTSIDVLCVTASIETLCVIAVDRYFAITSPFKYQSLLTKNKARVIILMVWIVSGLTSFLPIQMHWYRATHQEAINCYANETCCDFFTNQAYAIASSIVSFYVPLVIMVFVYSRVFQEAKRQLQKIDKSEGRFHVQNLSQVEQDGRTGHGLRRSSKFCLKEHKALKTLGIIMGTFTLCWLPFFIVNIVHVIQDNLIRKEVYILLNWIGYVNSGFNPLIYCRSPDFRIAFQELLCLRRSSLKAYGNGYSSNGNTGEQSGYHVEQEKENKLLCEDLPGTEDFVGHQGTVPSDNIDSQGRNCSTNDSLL
Gamma-aminobutyric acid receptor subunit alpha-1/alpha-2/beta-2/gamma-2, sequence (P14867 whole entry): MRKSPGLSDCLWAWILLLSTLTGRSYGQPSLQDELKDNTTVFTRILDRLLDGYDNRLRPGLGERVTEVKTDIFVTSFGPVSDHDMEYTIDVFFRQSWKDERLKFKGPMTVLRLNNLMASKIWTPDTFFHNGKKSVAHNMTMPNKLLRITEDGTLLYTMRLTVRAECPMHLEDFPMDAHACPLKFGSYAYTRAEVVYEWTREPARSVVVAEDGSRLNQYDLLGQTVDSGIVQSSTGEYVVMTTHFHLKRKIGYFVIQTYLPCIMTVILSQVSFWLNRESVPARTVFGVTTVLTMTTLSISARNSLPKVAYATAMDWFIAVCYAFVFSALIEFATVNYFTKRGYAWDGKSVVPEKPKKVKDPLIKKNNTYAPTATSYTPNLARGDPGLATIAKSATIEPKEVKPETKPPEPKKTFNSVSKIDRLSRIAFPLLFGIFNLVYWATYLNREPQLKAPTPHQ
Gamma-aminobutyric acid receptor subunit alpha-1/alpha-2/beta-2/gamma-2, sequence (P47870 whole entry): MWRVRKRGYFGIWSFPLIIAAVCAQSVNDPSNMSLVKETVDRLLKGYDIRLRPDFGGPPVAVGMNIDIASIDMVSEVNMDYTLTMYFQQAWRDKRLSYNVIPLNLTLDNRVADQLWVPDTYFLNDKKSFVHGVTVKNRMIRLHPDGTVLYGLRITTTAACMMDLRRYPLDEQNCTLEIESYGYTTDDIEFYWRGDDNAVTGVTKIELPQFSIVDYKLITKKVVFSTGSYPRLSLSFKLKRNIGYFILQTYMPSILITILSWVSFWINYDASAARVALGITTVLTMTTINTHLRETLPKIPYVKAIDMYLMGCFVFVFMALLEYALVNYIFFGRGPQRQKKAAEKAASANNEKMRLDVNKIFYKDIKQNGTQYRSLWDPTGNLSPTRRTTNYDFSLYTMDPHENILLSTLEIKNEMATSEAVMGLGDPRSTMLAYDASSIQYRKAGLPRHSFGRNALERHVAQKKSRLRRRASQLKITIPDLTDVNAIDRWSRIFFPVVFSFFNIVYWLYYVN
Gamma-aminobutyric acid receptor subunit alpha-1/alpha-2/beta-2/gamma-2, sequence (P18507 whole entry): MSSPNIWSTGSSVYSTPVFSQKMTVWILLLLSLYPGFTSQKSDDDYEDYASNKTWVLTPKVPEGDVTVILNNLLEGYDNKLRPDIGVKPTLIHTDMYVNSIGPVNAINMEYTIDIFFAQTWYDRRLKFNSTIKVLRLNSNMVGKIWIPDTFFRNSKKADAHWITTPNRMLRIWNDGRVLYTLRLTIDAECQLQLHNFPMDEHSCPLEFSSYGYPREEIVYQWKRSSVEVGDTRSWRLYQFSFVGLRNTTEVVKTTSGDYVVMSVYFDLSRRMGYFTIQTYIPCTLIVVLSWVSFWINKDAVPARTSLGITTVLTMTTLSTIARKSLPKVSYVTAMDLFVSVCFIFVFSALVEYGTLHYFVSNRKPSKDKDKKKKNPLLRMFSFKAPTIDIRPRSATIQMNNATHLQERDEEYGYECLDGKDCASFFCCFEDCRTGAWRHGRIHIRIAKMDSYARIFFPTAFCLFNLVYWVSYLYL
Gamma-aminobutyric acid receptor subunit alpha-1/alpha-2/beta-2/gamma-2, sequence (P47869 whole entry): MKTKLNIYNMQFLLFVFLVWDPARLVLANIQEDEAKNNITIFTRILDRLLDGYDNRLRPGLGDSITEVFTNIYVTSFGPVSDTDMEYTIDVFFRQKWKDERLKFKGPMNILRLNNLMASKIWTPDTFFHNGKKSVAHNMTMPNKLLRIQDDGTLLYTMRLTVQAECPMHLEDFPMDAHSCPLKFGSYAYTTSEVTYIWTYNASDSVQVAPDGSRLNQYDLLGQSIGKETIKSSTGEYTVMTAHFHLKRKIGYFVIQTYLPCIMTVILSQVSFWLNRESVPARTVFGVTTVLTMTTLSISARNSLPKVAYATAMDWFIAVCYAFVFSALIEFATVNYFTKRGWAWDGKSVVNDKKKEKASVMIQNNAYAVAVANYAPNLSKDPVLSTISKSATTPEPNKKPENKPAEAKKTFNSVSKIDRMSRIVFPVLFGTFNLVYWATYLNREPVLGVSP
Histamine H1 receptor, sequence (P35367 whole entry): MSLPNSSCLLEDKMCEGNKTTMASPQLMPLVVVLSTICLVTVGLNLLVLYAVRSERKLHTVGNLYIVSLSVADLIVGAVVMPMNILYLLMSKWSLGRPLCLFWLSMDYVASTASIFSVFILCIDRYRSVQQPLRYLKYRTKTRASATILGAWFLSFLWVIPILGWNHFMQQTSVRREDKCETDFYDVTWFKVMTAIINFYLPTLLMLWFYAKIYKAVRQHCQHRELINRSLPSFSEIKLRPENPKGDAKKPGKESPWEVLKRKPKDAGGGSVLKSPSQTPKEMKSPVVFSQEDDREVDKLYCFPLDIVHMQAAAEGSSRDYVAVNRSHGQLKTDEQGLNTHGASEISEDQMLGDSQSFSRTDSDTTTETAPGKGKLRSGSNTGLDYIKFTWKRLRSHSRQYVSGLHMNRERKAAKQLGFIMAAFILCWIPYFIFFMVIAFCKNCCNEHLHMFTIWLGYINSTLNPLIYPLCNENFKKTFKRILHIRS
T6 sequence (P28223 whole entry): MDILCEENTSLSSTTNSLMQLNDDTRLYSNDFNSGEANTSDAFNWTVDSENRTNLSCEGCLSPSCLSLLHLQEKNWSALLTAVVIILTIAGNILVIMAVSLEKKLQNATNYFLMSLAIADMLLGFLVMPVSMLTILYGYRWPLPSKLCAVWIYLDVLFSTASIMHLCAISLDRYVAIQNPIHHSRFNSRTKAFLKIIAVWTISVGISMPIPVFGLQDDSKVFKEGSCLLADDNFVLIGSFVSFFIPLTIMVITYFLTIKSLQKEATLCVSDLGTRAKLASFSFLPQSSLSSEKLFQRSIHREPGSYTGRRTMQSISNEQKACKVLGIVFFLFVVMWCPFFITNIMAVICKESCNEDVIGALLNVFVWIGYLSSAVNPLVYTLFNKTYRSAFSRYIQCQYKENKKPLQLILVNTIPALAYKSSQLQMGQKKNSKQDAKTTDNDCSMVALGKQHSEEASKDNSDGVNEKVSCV

Broadly, the AC50 is the concentration giving half of the maximal activity seen. At Adenosine receptor A1, `CC1(C)S[C@@H]2[C@H](/N=C/N3CCCCCC3)C(=O)N2[C@H]1C(=O)O` [AMDINOCILLIN] came in with an AC50 of over 30 µM.

`O=C(/C=C/c1cccc(S(=O)(=O)Nc2ccccc2)c1)NO` [BELINOSTAT]: the AC50 is over 10 µM on B1 bradykinin receptor; over 10 µM at Endothelin-1 receptor; over 30 µM in experiment [1]; over 10 µM in experiment [2]; over 30 µM on Adenosine receptor A1; over 10 µM on Histamine H1 receptor.

Consider `CC(O)(CS(=O)(=O)c1ccc(F)cc1)C(=O)Nc1ccc(C#N)c(C(F)(F)F)c1` (stereo not given) [BICALUTAMIDE], for which the AC50 (on B1 bradykinin receptor; in experiment [3]; on Endothelin-1 receptor; at Adenosine receptor A1; in [4]) was over 30 µM each time.

Take `CC(C)(C)NC(=O)N[C@H](C(=O)N1C[C@H]2[C@@H]([C@H]1C(=O)NC(CC1CCC1)C(=O)C(N)=O)C2(C)C)C(C)(C)C` (stereo not given in full) [BOCEPREVIR]: at Adenosine receptor A1, the AC50 was over 30 µM.

`O=C(O)COCCN1CCN(C(c2ccccc2)c2ccc(Cl)cc2)CC1` (stereo not given) [CETIRIZINE]: the AC50 at B1 bradykinin receptor was over 30 µM; in experiment [3], over 30 µM; on Endothelin-1 receptor it was over 30 µM; in experiment [1], over 10 µM; in experiment [4] it was over 30 µM.

For `NC[C@H]1CC[C@H](C(=O)Oc2ccc(CCC(=O)O)cc2)CC1` [CETRAXATE], the AC50 (in [3]; on Adenosine receptor A1; in experiment [4]) was over 30 µM in each case.

With `C[C@H](CCC(=O)O)[C@H]1CC[C@H]2[C@@H]3[C@H](O)C[C@@H]4C[C@H](O)CC[C@]4(C)[C@H]3C[C@H](O)[C@]12C` [CHOLIC ACID], in [5], the AC50 is over 30 µM.

`Cc1ncc2c(c1O)COC2c1ccc(Cl)cc1` (stereo not given) [CICLETANINE] gave an AC50 in experiment [5] of over 30 µM.

Consider `N#Cc1ccc(Oc2ccc3c(c2)COB3O)cc1` [CRISABOROLE], for which the AC50 in experiment [5] was over 30 µM.

`CC(=O)O[C@]1(C(C)=O)CC[C@H]2[C@@H]3C=C(Cl)C4=CC(=O)[C@@H]5C[C@@H]5[C@]4(C)[C@H]3CC[C@@]21C` [CYPROTERONE ACETATE]: the AC50 at Adenosine receptor A1 was over 30 µM.

Take `CC(=O)O[C@H]1Cc2ccccc2N(C(N)=O)c2ccccc21` [ESLICARBAZEPINE ACETATE]: in experiment [5], the AC50 was over 30 µM.

With `C[C@@H]1C[C@H]2[C@@H]3C[C@H](F)C4=CC(=O)C=C[C@]4(C)[C@@]3(F)[C@@H](O)C[C@]2(C)[C@@]1(OC(=O)c1ccco1)C(=O)SCF` [FLUTICASONE FUROATE], the AC50 at B1 bradykinin receptor is over 10 µM; at Endothelin-1 receptor it was over 10 µM; in [1], over 30 µM; in [2], over 10 µM; on Adenosine receptor A1, over 30 µM; at Histamine H1 receptor, over 10 µM. The compound further came in with an AC50 in [4] of over 30 µM.

With `CN(C)CCCN1c2ccccc2CCc2ccccc21` [IMIPRAMINE], the AC50 at B1 bradykinin receptor is over 30 µM; in experiment [3], over 30 µM; on Endothelin-1 receptor, over 30 µM; in experiment [4], 0.41 µM.

At Adenosine receptor A1, `O=C(CCC/C=C\C[C@@H]1[C@@H](CC[C@@H](O)CCc2ccccc2)[C@H](O)C[C@@H]1O)OCCCCO[N+](=O)[O-]` [LATANOPROSTENE BUNOD] gave an AC50 of over 30 µM.

`CN(Cc1cnc2nc(N)nc(N)c2n1)c1ccc(C(=O)N[C@@H](CCC(=O)O)C(=O)O)cc1` [METHOTREXATE]: the AC50 (on B1 bradykinin receptor; in experiment [3]; at Endothelin-1 receptor; in experiment [4]) was over 30 µM in each case.

Take `COc1ccc(OC)c(C(O)C(C)N)c1` (stereo not given) [METHOXAMINE]: in experiment [5], the AC50 was over 30 µM.

As to `CC1(CCN2CCCCC2)C(=O)CCc2ccccc21` (stereo not given) [NEPINALONE], in experiment [5], the AC50 is over 30 µM.

For `COC(=O)C[C@](O)(CCCC(C)(C)O)C(=O)O[C@@H]1C(OC)=C[C@]23CCCN2CCc2cc4c(cc2[C@H]13)OCO4` [OMACETAXINE MEPESUCCINATE], the AC50 at Adenosine receptor A1 was over 30 µM.

The compound `COc1cccc(C(=O)CCN[C@@H](C)[C@H](O)c2ccccc2)c1` [OXYFEDRINE] yielded an AC50 in experiment [5] of over 30 µM.

In turn, `CC[N+](C)(CC)CCOC(=O)C(O)(c1ccccc1)C1CCCCC1` (stereo not given) [OXYPHENONIUM] registered an AC50 in experiment [5] of over 30 µM.

For the compound `C[C@@H]1C[C@H]2[C@@H]3C[C@H](F)C4=CC(=O)C=C[C@]4(C)[C@H]3[C@@H](O)C[C@]2(C)[C@@]1(O)C(=O)CO` [PARAMETHASONE], the AC50 in experiment [5] was over 30 µM.

In experiment [5], `NNCCc1ccccc1` [PHENELZINE] returned an AC50 of over 30 µM.

`CCCn1cnc2c1c(=O)n(CCCCC(C)=O)c(=O)n2C` [PROPENTOFYLLINE] registered an AC50 in experiment [5] of over 30 µM.

For `CN[C@@H](C)[C@@H](O)c1ccccc1` [PSEUDOEPHEDRINE], the AC50 at B1 bradykinin receptor is over 30 µM; at Endothelin-1 receptor it was over 30 µM; in experiment [1], over 10 µM; in experiment [2], over 10 µM; at Histamine H1 receptor, over 10 µM.

In experiment [5], `COC(=O)[C@H]1[C@H]2C[C@@H]3c4[nH]c5cc(OC)ccc5c4CCN3C[C@H]2C[C@@H](OC(=O)c2cc(OC)c(OC)c(OC)c2)[C@@H]1OC` [RESERPINE] gave an AC50 of over 10 µM.

Compound `Clc1ccc(C(Cn2ccnc2)OCc2csc3c(Cl)cccc23)c(Cl)c1` (stereo not given) [SERTACONAZOLE] yielded an AC50 in [5] of over 10 µM.

`CC(OCCN1CCCCCC1)(c1ccccc1)c1ccc(Cl)cc1` (stereo not given) [SETASTINE] had a concentration at half-maximal activity (AC50) in experiment [5] of over 30 µM.

As for `COc1cc(C)c2c(Oc3cccc(C(F)(F)F)c3)c(OC)cc(NC(C)CCCN)c2n1` (stereo not given) [TAFENOQUINE], the AC50 on Adenosine receptor A1 was over 30 µM.

As for `O=S1(=O)CCN(CN2CCS(=O)(=O)NC2)CN1` [TAUROLIDINE], the AC50 (in [6]; in [7]; in experiment [3]; in [1]; in experiment [2]; on Adenosine receptor A1) was over 30 µM throughout. Besides, the AC50 is 4.6 µM at Histamine H1 receptor and over 30 µM in experiment [4].

In experiment [5], `c1ccc2c(SC3=NCCN3)c[nH]c2c1` [TINAZOLINE] displayed an AC50 of over 30 µM.

Take `Cc1ccc(C(=O)C(C)CN2CCCCC2)cc1` (stereo not given) [TOLPERISONE]: in experiment [5], the AC50 was over 30 µM.

Compound `COc1ccc2c(C(=S)N(C)CC(=O)O)cccc2c1C(F)(F)F` [TOLRESTAT] came in with an AC50 at Adenosine receptor A1 of over 30 µM.

The values are drawn from ChEMBL document CHEMBL5291721, “A preclinical secondary pharmacology resource illuminates target-adverse drug reaction associations of marketed drugs” (Nat Commun, 2023).
